“And” between values parts separate entries of the source, which are not always exact repeats. Equal entries are not always repeated.
What was measured:
[1] = molecular target: T1, acetylcholinesterase enzyme (Electrophorus electricus, UniProt O42275); assay: Inhibition of acetylcholinesterase by chlorpyrifos oxon in the Example 1 sensor (graphite; PEDOT layer with PVA layer, d1); conditions: Example 1 sensor (d1), 100 mV
[2] = molecular target: T1, acetylcholinesterase enzyme; assay: Inhibition of acetylcholinesterase by chlorpyrifos oxon in the Example 2 sensor (graphite; PEDOT and PVA conductive gel, d2); conditions: Example 2 sensor (d2), 100 mV
[3] = molecular target: T1, acetylcholinesterase enzyme; assay: Inhibition of acetylcholinesterase by chlorpyrifos oxon in the Example 3 sensor (graphite; cobalt phthalocyanine intermediate layer; PEDOT and PVA, d2); conditions: Example 3 sensor (CoPh + d2), 100 mV
[4] = molecular target: T1, acetylcholinesterase enzyme; assay: Inhibition of acetylcholinesterase by chlorpyrifos oxon in the Example 4 sensor (silver intermediate layer; graphite; PEDOT layer with PVA layer, d1); conditions: Example 4 sensor (silver + d1), 100 mV

T1 sequence (O42275 24-633): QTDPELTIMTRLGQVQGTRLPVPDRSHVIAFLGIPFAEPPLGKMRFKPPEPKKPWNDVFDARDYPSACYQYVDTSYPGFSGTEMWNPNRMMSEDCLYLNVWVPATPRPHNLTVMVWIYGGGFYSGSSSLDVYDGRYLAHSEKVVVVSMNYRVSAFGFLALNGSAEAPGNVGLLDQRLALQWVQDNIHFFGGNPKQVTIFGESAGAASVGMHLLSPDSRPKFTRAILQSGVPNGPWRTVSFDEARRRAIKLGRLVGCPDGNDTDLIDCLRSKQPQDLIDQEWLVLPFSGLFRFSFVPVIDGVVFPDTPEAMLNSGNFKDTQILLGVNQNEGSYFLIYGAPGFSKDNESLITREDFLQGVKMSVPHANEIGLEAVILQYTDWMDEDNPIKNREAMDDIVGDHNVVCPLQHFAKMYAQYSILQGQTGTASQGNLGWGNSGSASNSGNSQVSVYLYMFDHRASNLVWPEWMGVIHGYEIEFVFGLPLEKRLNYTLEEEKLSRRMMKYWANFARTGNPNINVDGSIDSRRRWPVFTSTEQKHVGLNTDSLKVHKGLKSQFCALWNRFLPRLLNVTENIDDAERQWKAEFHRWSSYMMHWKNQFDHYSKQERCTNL

chlorpyrifos oxon
% of inhibition in the presence of pesticide ([1]; chlorpyrifos oxon 1 · 10^−9 M): 46.82%
% of inhibition in the presence of pesticide ([1]; chlorpyrifos oxon 2 · 10^−10 M): 7% and 7.21%
% of inhibition in the presence of pesticide ([1]; chlorpyrifos oxon 3 · 10^−9 M): 69.20%
% of inhibition in the presence of pesticide ([1]; chlorpyrifos oxon 3 · 10^−10 M): 16.11%
% of inhibition in the presence of pesticide ([1]; chlorpyrifos oxon 4 · 10^−10 M): 22.41%
% of inhibition in the presence of pesticide ([1]; chlorpyrifos oxon 5 · 10^−10 M): 27.09%
% of inhibition in the presence of pesticide ([1]; chlorpyrifos oxon 9 · 10^−10 M): 44.54%
% of inhibition in the presence of pesticide ([2]; chlorpyrifos oxon 1 · 10^−9 M): 41.71%
% of inhibition in the presence of pesticide ([2]; chlorpyrifos oxon 3 · 10^−9 M): 61.15%
% of inhibition in the presence of pesticide ([2]; chlorpyrifos oxon 3 · 10^−10 M): 10% and 10.09%
% of inhibition in the presence of pesticide ([2]; chlorpyrifos oxon 4 · 10^−10 M): 15.31%
% of inhibition in the presence of pesticide ([2]; chlorpyrifos oxon 5 · 10^−10 M): 22.19%
% of inhibition in the presence of pesticide ([2]; chlorpyrifos oxon 9 · 10^−10 M): 39.75%
% of inhibition in the presence of pesticide ([3]; chlorpyrifos oxon 1 · 10^−9 M): 52.36%
% of inhibition in the presence of pesticide ([3]; chlorpyrifos oxon 2 · 10^−10 M): 9.82%
% of inhibition in the presence of pesticide ([3]; chlorpyrifos oxon 3 · 10^−9 M): 74.80%
% of inhibition in the presence of pesticide ([3]; chlorpyrifos oxon 3 · 10^−10 M): 10.70%
% of inhibition in the presence of pesticide ([3]; chlorpyrifos oxon 4 · 10^−10 M): 32.51%
% of inhibition in the presence of pesticide ([3]; chlorpyrifos oxon 5 · 10^−10 M): 31.46%
% of inhibition in the presence of pesticide ([3]; chlorpyrifos oxon 9 · 10^−10 M): 49.18%
% of inhibition in the presence of pesticide ([4]; chlorpyrifos oxon 1 · 10^−9 M): 49.50%
% of inhibition in the presence of pesticide ([4]; chlorpyrifos oxon 2 · 10^−10 M): 8% and 8.28%
% of inhibition in the presence of pesticide ([4]; chlorpyrifos oxon 3 · 10^−9 M): 72.23%
% of inhibition in the presence of pesticide ([4]; chlorpyrifos oxon 3 · 10^−10 M): 19.14%
% of inhibition in the presence of pesticide ([4]; chlorpyrifos oxon 4 · 10^−10 M): 24.51%
% of inhibition in the presence of pesticide ([4]; chlorpyrifos oxon 5 · 10^−10 M): 30.10%
% of inhibition in the presence of pesticide ([4]; chlorpyrifos oxon 9 · 10^−10 M): 47.55%
